In ChEMBL document CHEMBL3745696, “Synthesis and cytotoxic activity of novel hexahydropyrrolo[2,3-b]indole imidazolium salts” (Bioorg Med Chem Lett, 2016) one finds IC50 data, which are given here for 36 molecules.

What all share (format): functional, cell-based
In one assay the test system is MCF7. The assay is described as follows: Cytotoxicity against human MCF7 cells by MTT assay.
The test system of the next assay is A549. The assay is described as follows: Cytotoxicity against human A549 cells by MTT assay. On the technique in general: Tetrazolium dyes change colour on reduction, which living cells bring about.
Assay [1] is described as follows: Cytotoxicity against human HL60 cells by MTT assay. Conditions: HL-60.
Another assay deals with SW480. The assay is described as follows: Cytotoxicity against human SW480 cells by MTT assay.
Assay [2] is described as follows: Cytotoxicity against human SMMC7721 cells by MTT assay. Conditions: SMMC-7721.

The structures appear in SMILES notation. Bounds are passed on as bounds.

Broadly, the IC50 is the concentration that gives 50% inhibition. The low end stands for greater potency in that assay, the high end for weaker potency in that assay. Regarding `COc1ccc(C(=O)C[n+]2c(C)n(CC(=O)N3CCC4(C)c5ccccc5N(Cc5ccccc5)C34)c3ccccc32)cc1` (stereo not given), the IC50 with MCF7 was 6.99 µM; in the assay on A549 it was 12.5 µM; in assay [1], 4.18 µM; with SW480, 8.38 µM; in assay [2], 8.83 µM.

`Cc1n(CC(=O)N2CCC3(C)c4ccccc4N(C)C23)c2ccccc2[n+]1CC(=O)c1ccccc1` (stereo not given): the IC50 (in the assay with MCF7; in the assay on A549; in assay [1]; with SW480; in assay [2]) was greater than 20 µM in each case.

As to `Cc1cc2c(cc1C)[n+](Cc1ccc3ccccc3c1)cn2CC(=O)N1CCC2(C)c3ccccc3N(C)C12` (stereo not given), the 50% inhibitory concentration (IC50) stood at 1.84 µM in the assay on MCF7; 6.18 µM in the assay on A549; 1.35 µM in assay [1]; 4.54 µM in the assay with SW480; 4.03 µM in assay [2].

In the case of `Cc1n(CC(=O)N2CCC3(C)c4ccccc4N(C)C23)cc[n+]1CC(=O)c1ccc(Br)cc1` (stereo not given), the IC50 (in the assay with MCF7; in the assay on A549; in assay [1]; with SW480; in assay [2]) was greater than 20 µM in each case.

`Cc1n(CC(=O)N2CCC3(C)c4ccccc4N(C)C23)cc[n+]1Cc1ccc(Br)cc1` (stereo not given): the IC50 (in the assay with MCF7; in the assay with A549; in assay [1]; in the assay on SW480; in assay [2]) was greater than 20 µM each time.

For `CN1c2ccccc2C2(C)CCN(C(=O)Cn3cc[n+](CC(=O)c4ccccc4)c3)C12` (stereo not given), the IC50 (in the assay on MCF7; in the assay with A549; in assay [1]; in the assay with SW480; in assay [2]) was greater than 20 µM each time.

Regarding `CN1c2ccccc2C2(C)CCN(C(=O)Cn3c[n+](CC(=O)c4ccc(Br)cc4)c4ccccc43)C12` (stereo not given), the IC50 (in the assay on MCF7; in the assay with A549; in assay [1]; in the assay on SW480; in assay [2]) was greater than 20 µM throughout.

For the molecule `c1c[nH]cn1` [IMIDAZOLE], the IC50 (with MCF7; in the assay on A549; in assay [1]; with SW480; in assay [2]) was greater than 20 µM throughout.

Turning to `Cc1n(CC(=O)N2CCC3(C)c4ccccc4N(C)C23)c2ccccc2[n+]1Cc1ccc2ccccc2c1` (stereo not given), the IC50 was determined as 5.09 µM with MCF7; 16.7 µM with A549; 1.49 µM in assay [1]; 7.36 µM in the assay on SW480; 4.34 µM in assay [2].

As for `CC12CCN(C(=O)Cn3c[n+](CC(=O)c4ccccc4)c4ccccc43)C1N(Cc1ccccc1)c1ccccc12` (stereo not given), the IC50 is 8.16 µM with MCF7; greater than 20 µM in the assay on A549; 5.72 µM in assay [1]; 8.43 µM with SW480; 14.5 µM in assay [2].

As to `CC12CCN(C(=O)Cn3cnc4ccccc43)C1N(Cc1ccccc1)c1ccccc12` (stereo not given), the IC50 (in the assay on MCF7; in the assay on A549; in assay [1]; in the assay with SW480; in assay [2]) was greater than 20 µM in each case.

For the molecule `Cc1ccc(C[n+]2cn(CC(=O)N3CCC4(C)c5ccccc5N(C)C34)c3ccccc32)cc1` (stereo not given), the IC50 was 9.47 µM with MCF7; greater than 20 µM in the assay on A549; 5.13 µM in assay [1]; greater than 20 µM with SW480; greater than 20 µM in assay [2].

On to `COc1ccc(C(=O)C[n+]2ccn(CC(=O)N3CCC4(C)c5ccccc5N(C)C34)c2C)cc1` (stereo not given), for which the IC50 (in the assay with MCF7; in the assay with A549; in assay [1]; with SW480; in assay [2]) was greater than 20 µM in each case.

As to `Cc1cc2c(cc1C)[n+](CC(=O)c1ccccc1)cn2CC(=O)N1CCC2(C)c3ccccc3N(C)C12` (stereo not given), the IC50 is 13.4 µM with MCF7; greater than 20 µM with A549; 8.03 µM in assay [1]; greater than 20 µM in the assay on SW480; greater than 20 µM in assay [2].

As for `Cc1cc2c(cc1C)[n+](Cc1ccccc1Br)cn2CC(=O)N1CCC2(C)c3ccccc3N(C)C12` (stereo not given), the IC50 with MCF7 stood at 6.28 µM; in the assay with A549 it was 12.7 µM; in assay [1], 1.67 µM; in the assay on SW480, 7.24 µM; in assay [2] it was 5.61 µM.

For `Cc1nc2ccccc2n1CC(=O)N1CCC2(C)c3ccccc3N(Cc3ccccc3)C12` (stereo not given), the IC50 (in the assay on MCF7; in the assay with A549; in assay [1]; with SW480; in assay [2]) was greater than 20 µM each time.

For the molecule `CN1c2ccccc2C2(C)CCN(C(=O)Cn3c[n+](Cc4ccc(Br)cc4)c4ccccc43)C12` (stereo not given), the half-maximal inhibitory concentration (IC50) in the assay with MCF7 was 8.93 µM; in the assay on A549, greater than 20 µM; in assay [1] it was 6.96 µM; with SW480, greater than 20 µM; in assay [2] it was greater than 20 µM.

As for `CN1c2ccccc2C2(C)CCNC12` (stereo not given), the IC50 (with MCF7; in the assay with A549; in assay [1]; in the assay on SW480; in assay [2]) was greater than 20 µM throughout.

As for `Cc1ccc(C[n+]2ccn(CC(=O)N3CCC4(C)c5ccccc5N(C)C34)c2C)cc1` (stereo not given), the IC50 (with MCF7; with A549; in assay [1]; in the assay with SW480; in assay [2]) was greater than 20 µM each time.

In the case of `CC12CCNC1N(Cc1ccccc1)c1ccccc12` (stereo not given), the IC50 (with MCF7; in the assay on A549; in assay [1]; with SW480; in assay [2]) was greater than 20 µM each time.

On to `Cc1ccc(C[n+]2c(C)n(CC(=O)N3CCC4(C)c5ccccc5N(Cc5ccccc5)C34)c3ccccc32)cc1` (stereo not given), for which the IC50 with MCF7 turned out to be 1.98 µM; with A549, 6.63 µM; in assay [1] it was 1.25 µM; in the assay on SW480, 1.62 µM; in assay [2] it was 2.97 µM.

For the molecule `COc1ccc(C(=O)C[n+]2ccn(CC(=O)N3CCC4(C)c5ccccc5N(C)C34)c2)cc1` (stereo not given), the half-maximal inhibitory concentration (IC50) (with MCF7; with A549; in assay [1]; in the assay on SW480; in assay [2]) was greater than 20 µM in each case.

Regarding `Cc1cc2ncn(CC(=O)N3CCC4(C)c5ccccc5N(C)C34)c2cc1C` (stereo not given), the half-inhibitory concentration (IC50) (in the assay with MCF7; in the assay on A549; in assay [1]; in the assay with SW480; in assay [2]) was greater than 20 µM each time.

Regarding `CN1c2ccccc2C2(C)CCN(C(=O)Cn3cnc4ccccc43)C12` (stereo not given), the IC50 (with MCF7; in the assay on A549; in assay [1]; with SW480; in assay [2]) was greater than 20 µM each time.

For the molecule `COc1ccc(C(=O)C[n+]2cn(CC(=O)N3CCC4(C)c5ccccc5N(Cc5ccccc5)C34)c3cc(C)c(C)cc32)cc1` (stereo not given), the IC50 in the assay on MCF7 worked out at 2.35 µM; in the assay on A549 it was 7.4 µM; in assay [1], 1.64 µM; in the assay with SW480, 1.5 µM; in assay [2], 5.07 µM.

For the molecule `Cc1cc2c(cc1C)[n+](Cc1ccc(Br)cc1)cn2CC(=O)N1CCC2(C)c3ccccc3N(Cc3ccccc3)C12` (stereo not given), the IC50 stood at 1.72 µM in the assay on MCF7; 6.37 µM in the assay on A549; 1.29 µM in assay [1]; 1.41 µM in the assay with SW480; 3.59 µM in assay [2].

Take `CC12CCN(C(=O)Cn3c[n+](CC(=O)c4ccc(Br)cc4)c4ccccc43)C1N(Cc1ccccc1)c1ccccc12` (stereo not given): the IC50 in the assay with MCF7 stood at 8.15 µM; in the assay on A549, 8.07 µM; in assay [1] it was 2.93 µM; in the assay on SW480, 9.18 µM; in assay [2], 8.43 µM.

Turning to `COc1ccc(C(=O)C[n+]2ccn(CC(=O)N3CCC4(C)c5ccccc5N(Cc5ccccc5)C34)c2C)cc1` (stereo not given), the IC50 was 10.6 µM with MCF7; greater than 20 µM in the assay with A549; 1.3 µM in assay [1]; greater than 20 µM in the assay on SW480; greater than 20 µM in assay [2].

For the molecule `Cc1nccn1CC(=O)N1CCC2(C)c3ccccc3N(Cc3ccccc3)C12` (stereo not given), the IC50 (with MCF7; with A549; in assay [1]; in the assay on SW480; in assay [2]) was greater than 20 µM throughout.

Consider `Cc1n(CC(=O)N2CCC3(C)c4ccccc4N(Cc4ccccc4)C23)cc[n+]1CC(=O)c1ccccc1` (stereo not given), for which the IC50 (in the assay on MCF7; with A549; in assay [1]; with SW480; in assay [2]) was greater than 20 µM in each case.

Consider `CN1c2ccccc2C2(C)CCN(C(=O)Cn3c[n+](CC(=O)c4ccc5ccccc5c4)c4ccccc43)C12` (stereo not given), for which the IC50 with MCF7 was 11 µM; in the assay on A549 it was greater than 20 µM; in assay [1] it was 5.98 µM; in the assay on SW480, 8.56 µM; in assay [2] it was greater than 20 µM.

On to `Cc1n(CC(=O)N2CCC3(C)c4ccccc4N(Cc4ccccc4)C23)c2ccccc2[n+]1CC(=O)c1ccc(Br)cc1` (stereo not given), for which the concentration for half-maximal inhibition (IC50) worked out at 7.37 µM with MCF7; 9.87 µM with A549; 4.25 µM in assay [1]; 8.86 µM in the assay with SW480; 5.99 µM in assay [2].

As for `Cc1ccc(C[n+]2ccn(CC(=O)N3CCC4(C)c5ccccc5N(Cc5ccccc5)C34)c2C)cc1` (stereo not given), the IC50 in the assay on MCF7 is 7.26 µM; in the assay on A549, greater than 20 µM; in assay [1] it was 0.47 µM; with SW480, 9.71 µM; in assay [2], 19.5 µM.

For `Cc1ccc(C[n+]2cn(CC(=O)N3CCC4(C)c5ccccc5N(Cc5ccccc5)C34)c3cc(C)c(C)cc32)cc1` (stereo not given), the concentration for half-maximal inhibition (IC50) was found to be 1.86 µM with MCF7; 4.84 µM in the assay on A549; 1.23 µM in assay [1]; 1.77 µM in the assay on SW480; 1.74 µM in assay [2].

`Cc1n(CC(=O)N2CCC3(C)c4ccccc4N(Cc4ccccc4)C23)cc[n+]1CC(=O)c1ccc2ccccc2c1` (stereo not given): the IC50 with MCF7 is 5.67 µM; in the assay with A549 it was 11.2 µM; in assay [1], 2.2 µM; with SW480, 7.78 µM; in assay [2], 4.79 µM.

For `CC12CCN(C(=O)Cn3c[n+](CC(=O)c4ccc5ccccc5c4)c4ccccc43)C1N(Cc1ccccc1)c1ccccc12` (stereo not given), the IC50 with MCF7 turned out to be 5.13 µM; in the assay on A549, 7.4 µM; in assay [1] it was 1.64 µM; in the assay with SW480, 6.88 µM; in assay [2], 7.62 µM.
